pKi: −log10 of the molar value.
Each compound was assayed against Nicotinic acetylcholine receptor (Rattus leucopus, UniProt Q62594).
Nicotinic acetylcholine receptor, sequence (Q62594 whole entry): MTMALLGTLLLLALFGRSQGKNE
In the case of `COc1cc(CC(C)N)cc(OC)c1OC` (configuration not stated), the pKi was 6.43.
For `C=C(C=O)C[C@H]1C[C@H](O)[C@]2(C)O[C@@H]3C[C@@H]4O[C@@H]5C[C@]6(C)O[C@]7(C)CC[C@@H]8O[C@@H]9C[C@]%10(C)O[C@@H]%11C(C)=CC(=O)O[C@H]%11C[C@H]%10O[C@H]9C[C@@H](C)[C@H]8O[C@H]7C[C@H]6O[C@@]5(C)C/C=C\[C@H]4O[C@H]3C[C@H]2O1`, the pKi was < 5.00.
For `CN1C(=O)CCC1c1cccnc1` (configuration not stated) [CAS_21906], the pKi was 5.30.
Work on `C[N+](C)(C)CCCCCCCCCC[N+](C)(C)C` [Decamethonium Iodide] yielded a pKi of 5.51.
In the case of `C[N+](C)(C)CCCCCC[N+](C)(C)C` [Hexamethoniumdibromide], the pKi was < 5.00.
`CN1[C@@H](C[C@@H](O)c2ccccc2)CCC[C@H]1CC(=O)c1ccccc1` [Lobeline] was tested, and the pKi was 8.05.
With `COc1cc2c3cc1Oc1cc(ccc1O)C[C@@H]1c4c(cc(OC)c(O)c4Oc4ccc(cc4)C[C@@H]3N(C)CC2)CC[N+]1(C)C` [Tubocurarine,d] the pKi was < 5.00.
